# Results taken from ChEMBL document CHEMBL5465560, “Selectivity Literature for EUbOPEN Chemogenomic Library” (2024).
# Tests used:
# [1] = biological target: Mitogen-activated protein kinase 14 (Homo sapiens, UniProt Q16539); assay: Selectivity interaction (Enyzmatic assay) EUB0000601a MAPK14
# [2] = biological target: T1, Interleukin-1 receptor-associated kinase 3 (Homo sapiens) (UniProt Q9Y616); assay: Selectivity interaction (KinomeScan (DiscoverX)) EUB0000229b IRAK3; conditions: at 10 µM
# T1 sequence (whole entry): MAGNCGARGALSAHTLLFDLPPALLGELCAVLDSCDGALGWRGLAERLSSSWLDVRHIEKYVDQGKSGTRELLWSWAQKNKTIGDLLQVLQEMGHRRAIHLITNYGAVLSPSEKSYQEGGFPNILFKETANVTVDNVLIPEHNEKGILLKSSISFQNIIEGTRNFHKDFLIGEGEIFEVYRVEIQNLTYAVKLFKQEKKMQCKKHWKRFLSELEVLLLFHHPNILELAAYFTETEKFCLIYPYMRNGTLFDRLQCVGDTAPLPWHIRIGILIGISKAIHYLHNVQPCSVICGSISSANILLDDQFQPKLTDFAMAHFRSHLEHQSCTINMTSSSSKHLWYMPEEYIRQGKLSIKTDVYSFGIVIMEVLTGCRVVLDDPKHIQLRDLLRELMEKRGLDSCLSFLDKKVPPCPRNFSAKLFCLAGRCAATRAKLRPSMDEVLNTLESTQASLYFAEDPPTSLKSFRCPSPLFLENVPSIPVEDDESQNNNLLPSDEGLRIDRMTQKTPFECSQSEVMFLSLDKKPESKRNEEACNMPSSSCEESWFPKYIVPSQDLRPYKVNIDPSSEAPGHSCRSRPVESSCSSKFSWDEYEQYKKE
# [3] = biological target: Phosphatidylinositol 4-kinase beta (Homo sapiens, UniProt Q9UBF8); assay: Selectivity interaction (KinomeScan (DiscoverX)) EUB0000229b PI4KB; conditions: at 10 µM
# Phosphatidylinositol 4-kinase beta, sequence (Q9UBF8 2-816 limits assumed): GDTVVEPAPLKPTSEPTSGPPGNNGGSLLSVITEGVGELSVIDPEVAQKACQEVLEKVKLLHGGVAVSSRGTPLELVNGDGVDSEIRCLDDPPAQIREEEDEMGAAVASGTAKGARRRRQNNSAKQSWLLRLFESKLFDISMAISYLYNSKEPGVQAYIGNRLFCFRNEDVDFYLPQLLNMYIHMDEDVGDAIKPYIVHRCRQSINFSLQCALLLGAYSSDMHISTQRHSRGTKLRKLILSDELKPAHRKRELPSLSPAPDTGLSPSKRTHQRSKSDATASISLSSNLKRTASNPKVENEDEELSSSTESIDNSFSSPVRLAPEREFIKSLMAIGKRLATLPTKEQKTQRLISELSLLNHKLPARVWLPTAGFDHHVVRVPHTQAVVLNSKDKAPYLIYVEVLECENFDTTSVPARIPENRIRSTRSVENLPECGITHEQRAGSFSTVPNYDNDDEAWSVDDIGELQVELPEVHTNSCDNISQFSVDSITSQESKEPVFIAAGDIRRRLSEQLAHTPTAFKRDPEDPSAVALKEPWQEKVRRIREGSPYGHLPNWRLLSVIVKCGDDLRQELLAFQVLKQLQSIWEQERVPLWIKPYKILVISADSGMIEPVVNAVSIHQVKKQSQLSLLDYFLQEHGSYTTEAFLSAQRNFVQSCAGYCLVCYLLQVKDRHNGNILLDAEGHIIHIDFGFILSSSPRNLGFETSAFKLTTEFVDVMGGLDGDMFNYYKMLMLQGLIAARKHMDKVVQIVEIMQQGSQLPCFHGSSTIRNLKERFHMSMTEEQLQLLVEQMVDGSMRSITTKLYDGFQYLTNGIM
# [4] = biological target: Tyrosine-protein kinase Fes/Fps (Homo sapiens) (UniProt P07332); assay: Selectivity interaction (KinomeScan (DiscoverX)) EUB0001079a FES; conditions: at 1 µM
# Tyrosine-protein kinase Fes/Fps (Homo sapiens), sequence (P07332 whole entry): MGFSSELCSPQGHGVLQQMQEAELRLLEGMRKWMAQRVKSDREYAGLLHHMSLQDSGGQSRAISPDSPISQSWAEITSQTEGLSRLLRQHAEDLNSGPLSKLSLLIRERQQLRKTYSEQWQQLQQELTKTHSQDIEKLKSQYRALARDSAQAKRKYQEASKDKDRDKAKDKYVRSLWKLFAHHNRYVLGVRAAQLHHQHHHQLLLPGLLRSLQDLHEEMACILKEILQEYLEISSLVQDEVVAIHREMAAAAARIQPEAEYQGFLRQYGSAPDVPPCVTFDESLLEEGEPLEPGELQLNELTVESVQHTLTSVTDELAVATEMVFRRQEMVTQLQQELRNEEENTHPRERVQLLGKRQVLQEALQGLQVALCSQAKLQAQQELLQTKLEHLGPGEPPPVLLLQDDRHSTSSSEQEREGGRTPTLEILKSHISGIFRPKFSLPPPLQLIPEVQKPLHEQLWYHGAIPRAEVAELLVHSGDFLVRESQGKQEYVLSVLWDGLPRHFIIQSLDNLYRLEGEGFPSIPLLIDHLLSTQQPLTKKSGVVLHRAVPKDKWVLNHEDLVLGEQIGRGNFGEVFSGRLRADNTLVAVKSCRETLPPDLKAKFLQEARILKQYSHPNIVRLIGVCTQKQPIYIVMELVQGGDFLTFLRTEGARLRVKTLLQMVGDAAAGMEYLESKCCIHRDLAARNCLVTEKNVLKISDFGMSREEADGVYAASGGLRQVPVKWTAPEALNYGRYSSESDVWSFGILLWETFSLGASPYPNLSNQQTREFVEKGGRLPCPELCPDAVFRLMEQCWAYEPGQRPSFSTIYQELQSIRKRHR
# [5] = biological target: D(2) dopamine receptor (Homo sapiens, UniProt P14416); assay: Selectivity interaction (Dopamine D2 receptor assay, human recombinant ) EUB0000877a DRD2
# D(2) dopamine receptor, sequence (P14416 whole entry): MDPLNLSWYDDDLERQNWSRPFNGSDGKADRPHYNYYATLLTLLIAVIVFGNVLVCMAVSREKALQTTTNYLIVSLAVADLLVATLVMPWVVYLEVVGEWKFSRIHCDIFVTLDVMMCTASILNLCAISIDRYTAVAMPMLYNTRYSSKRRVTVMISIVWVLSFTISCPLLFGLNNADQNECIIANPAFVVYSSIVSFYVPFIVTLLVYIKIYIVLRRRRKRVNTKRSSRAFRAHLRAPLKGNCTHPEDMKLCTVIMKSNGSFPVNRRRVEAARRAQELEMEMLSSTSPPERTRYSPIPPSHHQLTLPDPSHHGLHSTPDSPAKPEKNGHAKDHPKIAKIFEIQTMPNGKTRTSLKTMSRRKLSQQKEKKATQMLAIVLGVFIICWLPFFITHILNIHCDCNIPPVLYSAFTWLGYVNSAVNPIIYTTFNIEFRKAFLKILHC
# [6] = biological target: T2, Histone-lysine N-methyltransferase SETD7 (Homo sapiens) (UniProt Q8WTS6); assay: Selectivity interaction (Methyltransferase screen (Scintillation proximity assays)) EUB0000255b SETD7
# T2 sequence (whole entry): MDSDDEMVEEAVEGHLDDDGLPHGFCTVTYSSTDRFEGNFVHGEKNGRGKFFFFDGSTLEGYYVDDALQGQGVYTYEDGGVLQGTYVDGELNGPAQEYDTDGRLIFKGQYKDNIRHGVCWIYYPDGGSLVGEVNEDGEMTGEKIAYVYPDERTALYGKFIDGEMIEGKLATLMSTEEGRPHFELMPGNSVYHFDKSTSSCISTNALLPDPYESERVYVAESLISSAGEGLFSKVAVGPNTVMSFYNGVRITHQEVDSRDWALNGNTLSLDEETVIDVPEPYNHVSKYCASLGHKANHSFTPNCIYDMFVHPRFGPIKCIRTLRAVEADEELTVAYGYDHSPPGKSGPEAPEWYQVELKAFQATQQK
# [7] = biological target: Mitogen-activated protein kinase 11 (Homo sapiens) (UniProt Q15759); conditions: at 10 µM
# Mitogen-activated protein kinase 11 (Homo sapiens), sequence (Q15759 whole entry): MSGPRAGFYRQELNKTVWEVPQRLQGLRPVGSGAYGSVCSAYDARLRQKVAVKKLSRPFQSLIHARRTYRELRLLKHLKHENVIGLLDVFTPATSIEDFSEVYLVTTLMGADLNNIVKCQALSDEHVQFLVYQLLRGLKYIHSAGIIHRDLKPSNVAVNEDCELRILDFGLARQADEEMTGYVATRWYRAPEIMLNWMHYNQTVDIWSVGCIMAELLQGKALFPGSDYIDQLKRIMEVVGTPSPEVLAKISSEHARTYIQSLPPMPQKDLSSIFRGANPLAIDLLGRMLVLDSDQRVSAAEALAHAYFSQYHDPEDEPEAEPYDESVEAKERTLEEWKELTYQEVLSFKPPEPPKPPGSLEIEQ
# [8] = biological target: 5'-AMP-activated protein kinase catalytic subunit alpha-2 (Homo sapiens) (UniProt P54646); assay: Selectivity interaction (ActivX KiNativ screen (ex vivo kinase selectivity in human PBMCs)) EUB0001619a PRKAA2; format: cell-based; conditions: PBMC, at 1 µM
# 5'-AMP-activated protein kinase catalytic subunit alpha-2 (Homo sapiens), sequence (P54646 whole entry, looked up): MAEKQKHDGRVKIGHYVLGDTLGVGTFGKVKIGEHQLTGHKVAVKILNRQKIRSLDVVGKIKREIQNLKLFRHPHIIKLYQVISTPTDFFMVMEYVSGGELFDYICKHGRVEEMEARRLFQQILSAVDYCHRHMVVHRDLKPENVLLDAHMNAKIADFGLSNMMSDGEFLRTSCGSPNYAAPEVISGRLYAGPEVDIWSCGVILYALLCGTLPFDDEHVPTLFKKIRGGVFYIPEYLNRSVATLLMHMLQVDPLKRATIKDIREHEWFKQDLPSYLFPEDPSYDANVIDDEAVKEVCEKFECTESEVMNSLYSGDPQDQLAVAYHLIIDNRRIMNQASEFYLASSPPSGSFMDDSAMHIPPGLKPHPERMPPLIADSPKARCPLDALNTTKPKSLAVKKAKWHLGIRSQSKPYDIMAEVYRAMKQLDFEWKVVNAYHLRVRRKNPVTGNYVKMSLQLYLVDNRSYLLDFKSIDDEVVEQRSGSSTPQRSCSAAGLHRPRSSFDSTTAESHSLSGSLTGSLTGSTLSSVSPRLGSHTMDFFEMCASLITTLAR
# [9] = biological target: Serine/threonine-protein kinase VRK2 (Homo sapiens) (UniProt Q86Y07); assay: Selectivity interaction (KinomeScan (DiscoverX)) EUB0001619a VRK2; conditions: at 1 µM
# Serine/threonine-protein kinase VRK2 (Homo sapiens), sequence (Q86Y07 whole entry): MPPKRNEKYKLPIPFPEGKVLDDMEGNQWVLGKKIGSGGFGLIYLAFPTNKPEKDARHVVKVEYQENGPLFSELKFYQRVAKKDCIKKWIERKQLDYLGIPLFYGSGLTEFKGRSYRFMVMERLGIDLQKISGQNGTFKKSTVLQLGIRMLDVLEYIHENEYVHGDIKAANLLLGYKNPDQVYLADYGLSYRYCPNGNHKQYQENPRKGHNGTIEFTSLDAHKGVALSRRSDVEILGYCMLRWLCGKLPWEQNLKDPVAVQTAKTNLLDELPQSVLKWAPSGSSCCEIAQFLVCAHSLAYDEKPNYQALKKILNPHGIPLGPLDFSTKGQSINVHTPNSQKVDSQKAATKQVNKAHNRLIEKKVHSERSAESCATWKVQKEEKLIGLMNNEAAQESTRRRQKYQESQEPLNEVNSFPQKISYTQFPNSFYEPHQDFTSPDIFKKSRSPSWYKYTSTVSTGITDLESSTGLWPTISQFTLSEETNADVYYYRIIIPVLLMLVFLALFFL
# [10] = biological target: T3, Serine/threonine-protein kinase MAK (Homo sapiens) (UniProt P20794); assay: Selectivity interaction (KinomeScan (DiscoverX)) EUB0000655a MAK; conditions: at 10 µM
# T3 sequence (whole entry): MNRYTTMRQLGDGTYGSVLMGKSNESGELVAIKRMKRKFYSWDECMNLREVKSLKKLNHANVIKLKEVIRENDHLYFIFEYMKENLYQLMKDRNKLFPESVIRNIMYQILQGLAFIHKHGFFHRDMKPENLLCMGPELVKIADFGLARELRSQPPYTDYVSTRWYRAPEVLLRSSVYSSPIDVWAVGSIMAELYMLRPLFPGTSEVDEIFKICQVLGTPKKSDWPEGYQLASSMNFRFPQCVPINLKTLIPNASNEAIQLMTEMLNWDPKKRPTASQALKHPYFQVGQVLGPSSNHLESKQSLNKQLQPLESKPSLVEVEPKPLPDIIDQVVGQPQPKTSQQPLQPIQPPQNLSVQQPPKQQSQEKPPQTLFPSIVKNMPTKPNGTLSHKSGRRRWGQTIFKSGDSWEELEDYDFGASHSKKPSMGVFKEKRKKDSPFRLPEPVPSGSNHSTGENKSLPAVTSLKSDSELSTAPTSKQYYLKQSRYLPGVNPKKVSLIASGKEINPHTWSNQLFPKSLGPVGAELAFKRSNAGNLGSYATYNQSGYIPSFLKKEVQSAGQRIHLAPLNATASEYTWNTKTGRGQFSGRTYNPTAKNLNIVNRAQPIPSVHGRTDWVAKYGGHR
# [11] = biological target: T4, Mitogen-activated protein kinase 12 (Homo sapiens) (UniProt P53778); assay: Selectivity interaction (KinomeScan (DiscoverX)) EUB0000695a MAPK12; conditions: at 100 nM
# T4 sequence (whole entry): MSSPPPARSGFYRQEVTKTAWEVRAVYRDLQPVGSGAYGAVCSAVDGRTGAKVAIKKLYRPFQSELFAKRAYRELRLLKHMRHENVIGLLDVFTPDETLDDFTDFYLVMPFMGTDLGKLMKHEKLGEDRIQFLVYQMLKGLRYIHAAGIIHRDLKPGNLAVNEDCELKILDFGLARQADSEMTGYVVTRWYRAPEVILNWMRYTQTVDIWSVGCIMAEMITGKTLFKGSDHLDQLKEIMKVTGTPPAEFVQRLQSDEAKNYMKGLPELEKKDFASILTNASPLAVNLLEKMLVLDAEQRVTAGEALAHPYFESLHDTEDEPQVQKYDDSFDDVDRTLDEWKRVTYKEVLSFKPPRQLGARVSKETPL
# [12] = biological target: Serine/threonine-protein kinase 32B (Homo sapiens) (UniProt Q9NY57); assay: Selectivity interaction (KinomeScan (DiscoverX)) EUB0000607a STK32B; conditions: at 10 µM
# Serine/threonine-protein kinase 32B (Homo sapiens), sequence (Q9NY57 whole entry): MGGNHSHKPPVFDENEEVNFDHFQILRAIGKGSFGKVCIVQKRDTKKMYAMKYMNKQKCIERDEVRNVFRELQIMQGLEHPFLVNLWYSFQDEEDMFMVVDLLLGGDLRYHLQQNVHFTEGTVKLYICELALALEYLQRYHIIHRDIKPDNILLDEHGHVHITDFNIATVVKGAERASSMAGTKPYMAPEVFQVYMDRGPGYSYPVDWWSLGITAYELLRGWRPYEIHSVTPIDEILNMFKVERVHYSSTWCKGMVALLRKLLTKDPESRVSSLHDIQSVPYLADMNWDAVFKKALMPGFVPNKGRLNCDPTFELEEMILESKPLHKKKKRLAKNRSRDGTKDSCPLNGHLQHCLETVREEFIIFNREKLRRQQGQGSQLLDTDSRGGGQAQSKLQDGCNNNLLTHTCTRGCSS
# [13] = biological target: Serine/threonine-protein kinase pim-3 (Homo sapiens) (UniProt Q86V86); assay: Selectivity interaction (ProQinase) EUB0000171b PIM3
# Mitogen-activated protein kinase 14, sequence (Q16539 whole entry): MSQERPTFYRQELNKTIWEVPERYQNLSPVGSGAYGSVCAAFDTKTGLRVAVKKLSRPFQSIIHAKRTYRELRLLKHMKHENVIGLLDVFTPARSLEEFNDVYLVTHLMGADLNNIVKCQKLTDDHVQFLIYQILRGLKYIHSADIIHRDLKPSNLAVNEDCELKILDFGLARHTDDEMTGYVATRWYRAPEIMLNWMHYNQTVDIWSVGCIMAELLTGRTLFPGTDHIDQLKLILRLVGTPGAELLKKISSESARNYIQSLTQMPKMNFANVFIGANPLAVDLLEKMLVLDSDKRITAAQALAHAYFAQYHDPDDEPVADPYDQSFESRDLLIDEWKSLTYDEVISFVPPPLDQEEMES
structure (smiles),measurement,setting,value
CCc1cc(Nc2nccc(-c3c(-c4ccc(OC)c(C(=O)Nc5c(F)cccc5F)c4)nc4ccccn34)n2)c(OC)cc1N1CCC(N2CCN(S(C)(=O)=O)CC2)CC1,IC50,[1],> 10 µM
COc1cc(N(C)c2ccnc3ccc(C(F)(F)F)cc23)cc(OC)c1OC,% binding,[2],0%
same,% binding,[3],90%
Nc1cnc(N2CCc3cc(S(=O)(=O)Nc4c(F)cc(Cl)cc4F)cc(N4CCCC4=O)c32)nc1 [TP-020n],% of control,[4],100%
CCC(=O)N1CC[C@H](Nc2ncnc3c2CN(c2cnc(OC)c(C(F)(F)F)c2)CC3)C1 [LENIOLISIB],IC50,[5],> 30 µM
COCCN1CCC(c2cc(CN(C)C(=O)c3cccc(Oc4ccccc4)c3)ccn2)CC1,% activity,[6]; at 1 µM,> 95%
same,% activity,[6]; at 10 µM,> 90%
Cc1cc([C@@H](C)Nc2ccccc2C(=O)O)c2nc(N3CCOCC3)cc(=O)n2c1 [AZD-6482],% of control,[7],91%
N#Cc1cccc(-c2c[nH]c3ncnc(N4CCOCC4)c23)c1,% of inhibition,[8],27%
same,% of control,[9],100%
CN(C)CCOc1ccc(-c2nc(-c3ccncc3)c(-c3ccc4c(c3)CC/C4=N\O)[nH]2)cc1,% of control,[10],100%
Cc1cc(F)c(C(=O)Nc2cccc(-c3nncn3C(C)C)n2)cc1-n1cnc(C2CC2)c1,% of control,[11],100%
CNC(=O)Nc1ccc(-c2nc(N3CC4CCC(C3)O4)c3cnn(C4CCC5(CC4)OCCO5)c3n2)cc1,% of control,[12],86%
C=CC(=O)Nc1cccc(C(=O)Nc2ccc(Nc3cc(-c4[nH]c(SC)nc4C)ccn3)cc2)c1,% of control,[13]; at 1 µM,93%
same,% of control,[13]; at 5 µM,82%
